From ChEMBL document CHEMBL4311992, “Discovery of 3-(((9H-purin-6-yl)amino)methyl)-4,6-dimethylpyridin-2(1H)-one derivatives as novel tubulin polymerization inhibitors for treatment of cancer” (Eur J Med Chem, 2019) come the findings set out here.

Calls of active or inactive are those of the source. No cut-off for these calls is given here.

For one assay, the system named is HCT-116. Kind of assay: cells. As to conditions: Homo sapiens, HCT-116, 72 h.
The subject of the next assay is A549. Kind of assay: cells. As to conditions: Homo sapiens, A549, 72 h.
The next assay has as its system HepG2. As to the kind of experiment: cells. To be noted: Homo sapiens, HepG2, 72 h.
In assay [1] the target is Histone-lysine N-methyltransferase EZH2 (Homo sapiens) (UniProt Q15910). Kind of assay: Inhibition of EZH2 (unknown origin) at 10 uM relative to control.
In the next assay the target is Tubulin (Sus scrofa) (UniProt P02554+P02550). As to the kind of experiment: Induction of porcine brain tubulin polymerization at 3 uM by fluorescence assay.
Chain of Tubulin (Sus scrofa) (P02550 whole entry, looked up): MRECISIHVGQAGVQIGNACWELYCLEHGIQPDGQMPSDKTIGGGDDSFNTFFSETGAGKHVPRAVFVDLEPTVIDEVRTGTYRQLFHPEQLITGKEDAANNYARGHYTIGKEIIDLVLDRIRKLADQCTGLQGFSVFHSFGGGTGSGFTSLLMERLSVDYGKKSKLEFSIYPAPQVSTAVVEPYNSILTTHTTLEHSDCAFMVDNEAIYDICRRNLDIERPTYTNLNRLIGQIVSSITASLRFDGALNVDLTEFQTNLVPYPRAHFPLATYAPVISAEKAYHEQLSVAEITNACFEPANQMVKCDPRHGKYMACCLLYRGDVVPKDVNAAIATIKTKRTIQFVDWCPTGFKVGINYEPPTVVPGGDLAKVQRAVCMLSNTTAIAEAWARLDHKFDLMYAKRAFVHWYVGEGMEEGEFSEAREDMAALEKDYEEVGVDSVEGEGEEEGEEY
Chain of Tubulin (Sus scrofa) (P02554 whole entry, looked up): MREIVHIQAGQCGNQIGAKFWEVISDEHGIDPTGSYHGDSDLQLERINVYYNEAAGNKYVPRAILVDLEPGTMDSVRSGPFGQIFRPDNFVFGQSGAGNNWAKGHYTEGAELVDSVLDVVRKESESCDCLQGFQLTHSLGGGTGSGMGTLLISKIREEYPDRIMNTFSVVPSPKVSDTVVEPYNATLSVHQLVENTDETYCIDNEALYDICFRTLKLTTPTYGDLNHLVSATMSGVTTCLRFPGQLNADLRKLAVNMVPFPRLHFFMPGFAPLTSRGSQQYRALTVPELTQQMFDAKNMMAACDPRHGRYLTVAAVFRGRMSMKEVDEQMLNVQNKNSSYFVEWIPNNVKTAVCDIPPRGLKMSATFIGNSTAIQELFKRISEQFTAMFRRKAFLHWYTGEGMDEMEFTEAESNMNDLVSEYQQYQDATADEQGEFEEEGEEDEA

Chain of Histone-lysine N-methyltransferase EZH2 (Homo sapiens) (Q15910 whole entry, looked up): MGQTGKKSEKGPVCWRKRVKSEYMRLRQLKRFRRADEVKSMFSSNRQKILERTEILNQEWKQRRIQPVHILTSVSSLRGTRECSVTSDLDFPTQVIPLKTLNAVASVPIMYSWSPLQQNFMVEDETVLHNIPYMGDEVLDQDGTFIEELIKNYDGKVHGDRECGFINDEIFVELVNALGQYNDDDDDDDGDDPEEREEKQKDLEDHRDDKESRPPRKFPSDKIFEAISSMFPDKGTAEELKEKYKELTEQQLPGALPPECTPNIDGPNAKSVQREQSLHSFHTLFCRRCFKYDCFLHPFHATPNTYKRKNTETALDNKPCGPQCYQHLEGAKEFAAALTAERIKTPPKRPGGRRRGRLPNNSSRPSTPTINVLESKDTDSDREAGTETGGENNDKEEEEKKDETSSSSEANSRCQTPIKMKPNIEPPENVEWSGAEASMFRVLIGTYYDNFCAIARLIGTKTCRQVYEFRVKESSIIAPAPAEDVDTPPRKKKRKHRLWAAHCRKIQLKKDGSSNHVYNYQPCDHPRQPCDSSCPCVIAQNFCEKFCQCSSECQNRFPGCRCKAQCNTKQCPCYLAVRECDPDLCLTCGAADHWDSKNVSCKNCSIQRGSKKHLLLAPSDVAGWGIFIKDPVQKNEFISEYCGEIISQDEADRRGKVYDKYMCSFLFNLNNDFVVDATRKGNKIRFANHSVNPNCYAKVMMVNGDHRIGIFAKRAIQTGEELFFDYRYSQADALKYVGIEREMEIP
Description for A549: Antiproliferative activity against human A549 cells after 72 hrs by MTT assay
Description for HCT-116: Antiproliferative activity against human HCT116 cells after 72 hrs by MTT assay

`Cc1cc(C)c(CNc2nc(-c3ccc(N4CCNCC4)nc3)nc3[nH]cnc23)c(=O)[nH]1`: the IC50 with HCT-116 is 2.65 µM; in the assay on A549, greater than 10 µM; in the assay on HepG2, 6.02 µM.
For `Cc1cc(C)c(CNc2nc(-c3ccccc3F)nc3c2ncn3C2CCCCO2)c(=O)[nH]1` (stereo not drawn), the IC50 in the assay with HCT-116, with A549 and with HepG2 was greater than 10 µM throughout.
On to `Cc1cc(C)c(CNc2nc(-c3ccc(N4CCN(C(=O)OC(C)(C)C)CC4)nc3)nc3c2ncn3C2CCCCO2)c(=O)[nH]1` (stereo not drawn), for which the half-maximal inhibitory concentration (IC50) in the assay with HCT-116 was 9.07 µM; with A549, greater than 10 µM; in the assay with HepG2, greater than 10 µM.
Consider `Cc1cc(C)c(CNc2nc(-c3ccc(N4CCOCC4)cc3)nc3c2ncn3C2CCCC2)c(=O)[nH]1`, for which the IC50 in the assay on HCT-116 was 0.52 µM; in the assay on A549 it was greater than 10 µM; in the assay on HepG2, 0.98 µM.
For `Cc1cc(C)c(CNc2nc(-c3ccc(N4CCOCC4)cc3)nc3c2ncn3C2CCCCO2)c(=O)[nH]1` (stereo not drawn) the same measures were greater than 10 µM, greater than 10 µM and greater than 10 µM.
For `CCC(CC)n1cnc2c(NCc3c(C)cc(C)[nH]c3=O)nc(-c3ccc(N4CCN(C)CC4)cc3)nc21` the same measures were greater than 10 µM, 5.09 µM and 1.99 µM.
Turning to `Cc1cc(C)c(CNc2nc(-c3ccc(N4CCN(C)CC4)nc3)nc3c2ncn3C2CCCC2)c(=O)[nH]1`, the figures for the IC50 with HCT-116, in the assay on A549 and with HepG2 were greater than 10 µM, 5.17 µM and 7.63 µM, respectively.
The matching figures for `Cc1cc(C)c(CNc2nc(-c3ccc(CN4CCOCC4)cc3)nc3[nH]cnc23)c(=O)[nH]1`: greater than 10 µM, greater than 10 µM and greater than 10 µM.
In the case of `Cc1cc(C)c(CNc2nc(-c3cccc(N4CCOCC4)c3)nc3c2ncn3C(C)C)c(=O)[nH]1`, the IC50 with HCT-116 was 7.42 µM; in the assay with A549 it was greater than 10 µM; in the assay with HepG2, greater than 10 µM.
Regarding `Cc1cc(C)c(CNc2nc(-c3ccc(N4CCN(C)CC4)nc3)nc3[nH]cnc23)c(=O)[nH]1`, the IC50 with HCT-116, in the assay on A549 and in the assay with HepG2 was greater than 10 µM each time.
`Cc1cc(C)c(CNc2nc(-c3ccc(N4CCN(C)CC4)cc3)nc3c2ncn3C(C)C)c(=O)[nH]1`: the figures for the IC50 in the assay with HCT-116, in the assay on A549 and with HepG2 were 7.93 µM, 4.72 µM and 5.81 µM, respectively.
In the case of `Cc1cc(C)c(CNc2ncnc3c2ncn3C2CCCC2)c(=O)[nH]1`, the IC50 was 1.05 µM with HCT-116 and greater than 10 µM in the assay with A549.
In the case of `Cc1cc(C)c(CNc2nc(-c3ccc(N4CCOCC4)cc3)nc3[nH]cnc23)c(=O)[nH]1`, the concentration for half-maximal inhibition (IC50) in the assay on HCT-116 is 5.66 µM; with A549 it was greater than 10 µM; in the assay on HepG2 it was 4.74 µM.
As for `CCC(CC)n1cnc2c(NCc3c(C)cc(C)[nH]c3=O)nc(-c3cccc(N4CCOCC4)c3)nc21`, the concentration for half-maximal inhibition (IC50) in the assay on HCT-116 was greater than 10 µM; with A549, greater than 10 µM; in the assay on HepG2, 2.22 µM.
With `Cc1cc(C)c(CNc2nc(-c3ccc(N4CCN(C(=O)OC(C)(C)C)CC4)nc3)nc3c2ncn3C(C)C)c(=O)[nH]1`, the IC50 with HCT-116 was 4.14 µM; with A549, 0.49 µM; in the assay on HepG2 it was greater than 10 µM.
Turning to `CCC(CC)n1cnc2c(NCc3c(C)cc(C)[nH]c3=O)nc(-c3ccc(N4CCOCC4)cc3)nc21`, the inhibition in assay [1] was -3%. Besides, the concentration for half-maximal inhibition (IC50) in the assay on HCT-116 is greater than 10 µM; in the assay on A549 it was 5.9 µM; in the assay with HepG2, 1.54 µM.
Take `CC(=O)O[C@H]1C(=O)[C@@]2(C)[C@H]([C@H](OC(=O)c3ccccc3)[C@]3(O)C[C@H](OC(=O)[C@H](O)[C@@H](NC(=O)c4ccccc4)c4ccccc4)C(C)=C1C3(C)C)[C@]1(OC(C)=O)CO[C@@H]1C[C@@H]2O`: on Tubulin (Sus scrofa), the outcome was Active.
Consider `Cc1cc(C)c(CNc2nc(-c3cccc(N4CCOCC4)c3)nc3[nH]cnc23)c(=O)[nH]1`, for which the IC50 with HCT-116 was 6.84 µM; in the assay with A549, greater than 10 µM; in the assay with HepG2, 5.19 µM.
Take `Cc1cc(C)c(CNc2nc(-c3ccc(N4CCN(C)CC4)cc3)nc3c2ncn3C2CCCC2)c(=O)[nH]1`: the IC50 is 1.37 µM with HCT-116, 6.21 µM in the assay with A549 and 2.59 µM in the assay with HepG2.
The matching figures for `Cc1cc(C)c(CNc2nc(-c3ccc(N4CCN(C)CC4)nc3)nc3c2ncn3C(C)C)c(=O)[nH]1`: 8.99 µM, greater than 10 µM and greater than 10 µM.
As for `Cc1cc(C)c(CNc2nc(-c3ccc(N4CCN(C)CC4)nc3)nc3c2ncn3C2CCCCO2)c(=O)[nH]1` (stereo not drawn), the IC50 was 9.05 µM in the assay with HCT-116, greater than 10 µM with A549 and greater than 10 µM in the assay on HepG2.
Regarding `CCC(CC)n1cnc2c(NCc3c(C)cc(C)[nH]c3=O)nc(Cl)nc21`, the inhibition in assay [1] came to 0.5%. Also, the IC50 with HCT-116 was found to be 1.33 µM; with A549, 1.51 µM; in the assay with HepG2, 0.2 µM.
In the case of `Cc1cc(C)c(CNc2nc(Cl)nc3c2ncn3C(C)C)c(=O)[nH]1`, the half-maximal inhibitory concentration (IC50) with HCT-116 is 1.86 µM; in the assay on A549, 1.13 µM; in the assay with HepG2 it was 0.15 µM.
Consider `Cc1cc(C)c(CNc2nc(-c3ccc(N4CCNCC4)nc3)nc3c2ncn3C(C)C)c(=O)[nH]1`, for which the inhibition in assay [1] is -4%. The results for the half-maximal inhibitory concentration (IC50) with HCT-116, in the assay with A549 and in the assay on HepG2 were 1.19 µM, greater than 10 µM and 2.88 µM, respectively.
In the case of `Cc1cc(C)c(CNc2nc(-c3cccc(N4CCOCC4)c3)nc3c2ncn3C2CCCC2)c(=O)[nH]1`, the IC50 in the assay with HCT-116 was found to be 5.32 µM; in the assay with A549 it was 2.65 µM; in the assay with HepG2 it was 0.89 µM.
For the compound `COc1ccc(CNc2nc(NCc3ccc(OC)cc3)c3ncn(C(C)C)c3n2)cc1` [MYOSEVERIN], the IC50 is 7.82 µM in the assay with HCT-116, greater than 10 µM in the assay with A549 and 3.06 µM in the assay on HepG2.
`CCC(CC)n1cnc2c(NCc3c(C)cc(C)[nH]c3=O)nc(-c3ccc(N4CCNCC4)nc3)nc21`: the IC50 in the assay with HCT-116 worked out at 3.94 µM; in the assay with A549, 6.13 µM; with HepG2, 5.72 µM.
For `Cc1cc(C)c(CNc2nc(-c3ccccc3F)nc3[nH]cnc23)c(=O)[nH]1` the same measures were 6.91 µM, greater than 10 µM and 6.89 µM.
As for `Cc1cc(C)c(CNc2nc(-c3ccc(N4CCN(C)CC4)cc3)nc3c2ncn3C2CCCCO2)c(=O)[nH]1` (stereo not drawn), the half-maximal inhibitory concentration (IC50) with HCT-116, in the assay with A549 and in the assay on HepG2 was greater than 10 µM each time.
For the compound `Cc1cc(C)c(CNc2nc(-c3ccc(CN4CCOCC4)cc3)nc3c2ncn3C(C)C)c(=O)[nH]1`, the half-maximal inhibitory concentration (IC50) in the assay with HCT-116 is 8.01 µM; with A549 it was greater than 10 µM; with HepG2, 0.93 µM.
`CCC(CC)n1cnc2c(NCc3c(C)cc(C)[nH]c3=O)nc(-c3ccc(CN4CCOCC4)cc3)nc21`: the IC50 in the assay with HCT-116 was determined as 2.99 µM; in the assay with A549, 6.13 µM; in the assay on HepG2 it was 1.82 µM.
Regarding `Cc1cc(C)c(CNc2nc(-c3ccc(OC(F)(F)F)cc3)nc3c2ncn3C2CCCCO2)c(=O)[nH]1` (stereo not drawn), the results for the half-maximal inhibitory concentration (IC50) in the assay with HCT-116, in the assay with A549 and in the assay with HepG2 were 5.83 µM, 9.46 µM and 5.22 µM, respectively.
Turning to `Cc1cc(C)c(CNc2nc(-c3ccc(CN4CCOCC4)cc3)nc3c2ncn3C2CCCCO2)c(=O)[nH]1` (stereo not drawn), the half-inhibitory concentration (IC50) in the assay with HCT-116, in the assay on A549 and in the assay on HepG2 was greater than 10 µM each time.
For `CCC(CC)n1cnc2c(NCc3c(C)cc(C)[nH]c3=O)nc(-c3ccc(OC(F)(F)F)cc3)nc21`, the results for the 50% inhibitory concentration (IC50) in the assay with HCT-116, in the assay on A549 and in the assay on HepG2 were 0.78 µM, 5.38 µM and 1.42 µM, respectively.
The matching figures for `CCC(CC)n1cnc2c(NCc3c(C)cc(C)[nH]c3=O)nc(-c3ccc(N4CCN(C)CC4)nc3)nc21`: 0.65 µM, greater than 10 µM and 0.82 µM.
As to `Cc1cc(C)c(CNc2nc(-c3ccc(OC(F)(F)F)cc3)nc3[nH]cnc23)c(=O)[nH]1`, the half-inhibitory concentration (IC50) in the assay with HCT-116 is 1.08 µM; in the assay on A549, greater than 10 µM; in the assay with HepG2 it was 1.29 µM.
For `Cc1cc(C)c(CNc2nc(-c3ccc(N4CCN(C(=O)OC(C)(C)C)CC4)nc3)nc3c2ncn3C2CCCC2)c(=O)[nH]1` the same measures were 1.01 µM, greater than 10 µM and 1.62 µM.
Consider `Cc1cc(C)c(CNc2nc(-c3ccc(N4CCNCC4)nc3)nc3c2ncn3C2CCCC2)c(=O)[nH]1`, for which the half-maximal inhibitory concentration (IC50) is 0.85 µM with HCT-116, greater than 10 µM in the assay with A549 and 1.71 µM in the assay with HepG2.
With `Cc1cc(C)c(CNc2nc(-c3ccc(CN4CCOCC4)cc3)nc3c2ncn3C2CCCC2)c(=O)[nH]1`, the IC50 with HCT-116 was 2.46 µM; in the assay with A549, greater than 10 µM; with HepG2 it was 1.93 µM.
For `Cc1cc(C)c(CNc2nc(Cl)nc3c2ncn3C2CCCCO2)c(=O)[nH]1` (stereo not drawn) the same measures were 2.71 µM, 1.93 µM and 0.41 µM.
On to `Cc1cc(C)c(CNc2nc(-c3ccc(OC(F)(F)F)cc3)nc3c2ncn3C(C)C)c(=O)[nH]1`, for which the half-maximal inhibitory concentration (IC50) in the assay on HCT-116 amounted to 0.55 µM; with A549, 9.31 µM; with HepG2, 2.47 µM.
Consider `Cc1cc(C)c(CNc2nc(-c3ccc(OC(F)(F)F)cc3)nc3c2ncn3C2CCCC2)c(=O)[nH]1`, for which the results for the IC50 in the assay with HCT-116, in the assay on A549 and in the assay with HepG2 were 7.55 µM, greater than 10 µM and 6.21 µM, respectively.
For the compound `Cc1cc(C)c(CNc2nc(-c3ccc(N4CCN(C)CC4)cc3)nc3[nH]cnc23)c(=O)[nH]1`, the half-maximal inhibitory concentration (IC50) in the assay on HCT-116 was greater than 10 µM; in the assay with A549, greater than 10 µM; with HepG2, 9.83 µM.
With `Cc1cc(C)c(CNc2nc(-c3cccc(N4CCOCC4)c3)nc3c2ncn3C2CCCCO2)c(=O)[nH]1` (stereo not drawn), the IC50 is 8.27 µM in the assay with HCT-116, greater than 10 µM in the assay with A549 and 6.67 µM with HepG2.
Consider `CCC(CC)n1cnc2c(NCc3c(C)cc(C)[nH]c3=O)nc(-c3ccc(N4CCN(C(=O)OC(C)(C)C)CC4)nc3)nc21`, for which the half-maximal inhibitory concentration (IC50) was 0.88 µM with HCT-116, 8.21 µM with A549 and 0.52 µM in the assay with HepG2.
Regarding `Cc1cc(C)c(CNc2nc(-c3ccc(N4CCOCC4)cc3)nc3c2ncn3C(C)C)c(=O)[nH]1`, the IC50 in the assay with HCT-116 was 1.03 µM; in the assay with A549, 4.3 µM; with HepG2 it was 1.11 µM.
